Results reported in patent US20260007651A1, “Effect of YEL002 on Conditions and Diseases” (RadMit, Inc., priority 2022, published 2026).

Legend:
[1] = system: mice irradiated with an LD100; test: Radiation mitigation: survival of mice irradiated with an LD100; type: in vivo
Experimental: There were 10 primary hits and 6 confirmed hits and 2 of them were used in mice. Mice were irradiated with an LD100 after which 100% of the mice died after 10 to 15 days. When the researchers injected YEL002 IP into the irradiated mice 24 hours after radiation and another four doses in 24 hours intervals 100% of the mice, so all mice which would otherwise have died survived which was a highly significant difference. Many lived a normal life span of more than 2 years which is interesting since other labs which isolated other compounds their mice died of late radiation effects much earlier.

ATM-deficient mice = test: Lifespan of ATM-deficient mice injected weekly; type: in vivo; conditions: ATM-deficient mice injected every week during most of their lifespans
lymphoma = test: Lymphoma incidence in mice (National Institute of Health experiment); type: in vivo; conditions: radiation exposure caused 90% to develop lymphoma without treatment
Experimental: This was observed after treating mice right after birth, if humans are treated later in life it is possible that only 10 or 5 years are added and probably more for DNA repair deficient diseases like ataxia telangiectasia (ATM) which is still very substantial.

[2] = system: three different cancer cell lines; test: Radiation killing of cancer cell lines; type: cell-based
human keratinocytes = test: Proteomics study of induced proteins; type: cell-based
Source text: In terms of mechanism of action in a proteomics study, the chemical was capable of inducing 244 different proteins in human keratinocytes, which comprised anti-inflammatory proteins, a number of DNA repair proteins, and even some neuroprotective proteins. It is known that turtles at the Galapagos Islands live 150 or more years without cancer and have multiple copies of DNA repair genes and anti-inflammatory genes. The compound boosts the expression of these genes in mammals. Since it induces DNA repair and is anti-inflammatory, it may be possible to prevent and cure many diseases and extend the life. In addition, patients are using the compound to try to treat Alzheimer's, multiple sclerosis, alopecia, diabetes, to prevent prostate cancer, to increase testosterone level, etc. People report feeling more energetic, less tired, and less combative and become nicer.

Side effects observed = conditions: in vivo
Source text: It is also observed that three different cancer cell lines were not protected from radiation killing by YEL002, which indicates a use in radiation oncology or chemotherapy where the tumor can still be killed by the radiation, or chemotherapy but YEL002 protects the rest of the body from radiation or chemotherapy damage, and inhibits secondary carcinogenesis.

Solubility / appearance = type: physicochemical
Experimental: The compound takes the appearance of an off-white powder and is fat soluble. One takes a quarter teaspoon or about 0.5 g dissolved in a couple of teaspoons of oil. In an exemplary embodiment, it is dissolved in grape seed oil and taken twice a day, once in the morning and once in the evening. It is easy to use and has almost no taste.

[3] = Case study, eight weeks of use (coughing, diarrhea); type: in vivo, human; conditions: used for eight weeks
Source text: It has also beneficial effects on the skin and one needs less of a cosmetic cream containing the same compound.

[4] = User study: periodontics or receding gums; set-up: species or system human; conditions: in vivo
Source text: In a user study, the patient's periodontics or receding gums were healed and no longer needed to floss teeth as much, since the teeth are now perfectly aligned and close together without a space in between.

[5] = Eye sight, eye exam in an ophthalmology office; type: in vivo, human
Experimental: The patient also observed no longer needing eyeglasses after 55 years of wearing them, and after 4 weeks with the drug, the subject can see much better than anybody their age. According to the patient, the compound fixed 2 diopters and 1 astigmatism of eye sight deficiency in only 4 weeks. An eye exam was conducted in an ophthalmology office. […] In every subject using the chemical the eye background is completely green, because YEL002 benefits the retina and optic nerve.

[6] = Patient testimonial: veins and blood; conditions: human, in vivo
Source text: His blood is thinner, since proinflammatory factors make platelets sticky and cause blood clots. Thus, it prevents or treats blood clots.

[7] = Patient testimonial: elevated levels of liver damage; type: in vivo, human; conditions: after two days of treatment; twice elevated for 25 years before
[8] = Patient testimonial: subject on chemotherapy; type: in vivo, human; conditions: one week on YEL002, subject on chemotherapy
Source text: They are extremely happy and all their doctors are happy too and told them that they need to continue their experimental therapy.

[9] = Patient testimonial: subject post-chemotherapy, coughing and wheezing; type: in vivo, human; conditions: one hour after treatment
Source text: According to another patient testimonial, one subject post-chemotherapy had coughing and wheezing symptoms and went downhill very fast and their child was worried that they were dying.

[10] = Patient testimonial: heavy smoker, smoker's leg and hair loss; type: in vivo, human; conditions: one week after treatment
Source text: According to another patient testimonial, one subject was a heavy smoker and they had all kinds of inflammation problems including smoker's leg which were oozing lymph liquid and could not heal for many years.

[11] = Patient testimonial: nose spray in oil, allergic attacks; type: in vivo, human; conditions: dissolved in oil, nose spray 2-4 times a day
Source text: According to another patient testimonial, one subject dissolved YEL002 in oil and used that oil to spray their nose 2-4 times a day.

COc1ccc2cc(-c3nc4ccc(C)cn4c3NCc3ccco3)c(=O)[nH]c2c1 [YEL002]
mice survived ([1]; LD100 irradiation, IP 24 hours after radiation and another four doses in 24 hours intervals, without treatment 100% died after 10 to 15 days): 100% | life span of surviving irradiated mice ([1]; many of the surviving mice): more than 2 years | lived longer than without injections (ATM-deficient mice): 33% | lymphoma incidence after radiation exposure (lymphoma): 40% | protection of cancer cell lines from radiation killing [2]: not protected | number of different proteins induced (human keratinocytes; human keratinocytes, anti-inflammatory, DNA repair and neuroprotective proteins): 244 | number of neuroprotective functions induced (human keratinocytes; proteomics): 9 | side effects (Side effects observed): no side effects | solubility (Solubility / appearance): fat soluble | symptoms of coughing and diarrhea [3]: reduced symptoms of coughing and diarrhea | periodontics or receding gums [4]: healed | need for eyeglasses ([5]; another subject who had 6 diopters): does not require eyeglasses any longer | eye sight deficiency fixed, astigmatism ([5]; in 4 weeks): 1 astigmatism | eye sight deficiency fixed, diopters ([5]; in 4 weeks): 2 diopters | blood [6]: thinner | varicose and spider veins [6]: fixes varicose and spider veins | levels of liver damage [7]: normal and below the cutoff | body weight gained [8]: 2 kg | vomiting [8]: completely stopped | coughing and wheezing symptoms [9]: completely alleviated | hair loss [10]: completely stopped | smoker's leg condition [10]: completely healed | allergic attacks such as sneezing and runny nose [11]: completely prevented all allergic attacks
